Test results reported in article PMC7560712, “Analysis of translating mitoribosome reveals functional characteristics of translation in mitochondria of fungi” (Nature Communications, 2020).

What was measured:
[1] = molecular target: T1, mS29 (mitoribosomal small subunit) (Neurospora crassa, UniProt Q7SD06); assay: cryo-EM structure; format: binding; settings: co-purified endogenous nucleotide in P-loop pocket; assigned as ATP rather than GDP from density and chemical environment (Leu150); local resolution 2.77 A
T1 construct: gene rsm23; native mS29 within the mtSSU of intact mitoribosomes purified from mycelia mitochondria; His-tag is on Oxa1 only
T1 sequence (Q7SD06 1-469): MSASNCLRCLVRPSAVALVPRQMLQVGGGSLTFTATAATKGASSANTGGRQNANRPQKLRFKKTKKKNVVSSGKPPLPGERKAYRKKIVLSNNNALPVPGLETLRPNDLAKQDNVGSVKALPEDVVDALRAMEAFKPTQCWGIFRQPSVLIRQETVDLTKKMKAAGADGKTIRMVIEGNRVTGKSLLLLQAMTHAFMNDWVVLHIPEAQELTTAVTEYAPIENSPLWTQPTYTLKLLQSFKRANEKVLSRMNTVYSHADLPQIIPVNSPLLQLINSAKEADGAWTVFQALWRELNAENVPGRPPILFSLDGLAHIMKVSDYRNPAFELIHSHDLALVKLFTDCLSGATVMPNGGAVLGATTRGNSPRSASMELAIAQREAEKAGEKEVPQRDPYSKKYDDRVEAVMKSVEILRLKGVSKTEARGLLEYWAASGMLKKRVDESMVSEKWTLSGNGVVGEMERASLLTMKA

[2] = molecular target: T2, pocket formed by mL40, uL5m, and rRNA H84-ES3 (central protuberance of mtLSU) (Neurospora crassa, UniProt Q1K6P0+V5IQE0); assay: cryo-EM structure; format: binding; settings: co-purified endogenous ligand; assignment 'most likely'; Arg295 of mL40 stacks on nicotinamide; rRNA part of site; oxidation state not stated
T2 construct: gene mrpl28; native proteins within the mtLSU of intact mitoribosomes; site also formed by 23S rRNA (H84-ES3, A2755, U2759)
T2 sequence (Q1K6P0 whole entry): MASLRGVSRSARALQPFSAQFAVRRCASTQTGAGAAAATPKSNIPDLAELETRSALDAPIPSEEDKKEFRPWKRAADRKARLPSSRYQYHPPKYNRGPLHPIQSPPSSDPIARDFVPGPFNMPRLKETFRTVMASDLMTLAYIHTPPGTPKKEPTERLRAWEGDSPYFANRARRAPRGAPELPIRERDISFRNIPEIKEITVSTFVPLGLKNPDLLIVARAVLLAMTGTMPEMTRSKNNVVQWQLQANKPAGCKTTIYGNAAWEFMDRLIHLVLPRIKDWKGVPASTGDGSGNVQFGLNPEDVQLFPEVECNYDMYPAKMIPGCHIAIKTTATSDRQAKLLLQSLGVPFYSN
T2 sequence (V5IQE0 whole entry): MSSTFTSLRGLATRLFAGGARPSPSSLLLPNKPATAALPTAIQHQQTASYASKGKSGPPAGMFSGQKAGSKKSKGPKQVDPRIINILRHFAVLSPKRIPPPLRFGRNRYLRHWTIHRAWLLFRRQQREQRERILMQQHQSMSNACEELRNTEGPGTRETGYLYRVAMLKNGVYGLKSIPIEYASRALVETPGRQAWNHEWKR

Compound | cryo-EM structure [1] | cryo-EM structure [2]
Nc1ncnc2c1ncn2[C@@H]1O[C@H](COP(=O)(O)OP(=O)(O)OP(=O)(O)O)[C@@H](O)[C@H]1O [ATP] | the correct assignment for the nucleotide is adenosine triphosphate (ATP) | 
NC(=O)c1ccc[n+]([C@@H]2O[C@H](COP(=O)([O-])OP(=O)(O)OC[C@H]3O[C@@H](n4cnc5c(N)ncnc54)[C@H](O)[C@@H]3O)[C@@H](O)[C@H]2O)c1 [NAD] |  | we conclude that it is most likely to be NAD
